What all share (assay): Competitive isoTOP-ABPP in situ (fragment-treated cells)
What all share (type): cell-based

Test [1] deals with cysteines in MDA-MB-231 and Ramos cells (Homo sapiens, UniProt Q96NY7). The settings on record: 200 μM, insitu, 231.
Test [2] deals with cysteines in MDA-MB-231 and Ramos cells (Homo sapiens, UniProt O14933). The settings on record: 200 μM, insitu.
Test [3] addresses T1, cysteines in MDA-MB-231 and Ramos cells (Homo sapiens, UniProt Q07065).
T1 sequence (Q07065 1-602): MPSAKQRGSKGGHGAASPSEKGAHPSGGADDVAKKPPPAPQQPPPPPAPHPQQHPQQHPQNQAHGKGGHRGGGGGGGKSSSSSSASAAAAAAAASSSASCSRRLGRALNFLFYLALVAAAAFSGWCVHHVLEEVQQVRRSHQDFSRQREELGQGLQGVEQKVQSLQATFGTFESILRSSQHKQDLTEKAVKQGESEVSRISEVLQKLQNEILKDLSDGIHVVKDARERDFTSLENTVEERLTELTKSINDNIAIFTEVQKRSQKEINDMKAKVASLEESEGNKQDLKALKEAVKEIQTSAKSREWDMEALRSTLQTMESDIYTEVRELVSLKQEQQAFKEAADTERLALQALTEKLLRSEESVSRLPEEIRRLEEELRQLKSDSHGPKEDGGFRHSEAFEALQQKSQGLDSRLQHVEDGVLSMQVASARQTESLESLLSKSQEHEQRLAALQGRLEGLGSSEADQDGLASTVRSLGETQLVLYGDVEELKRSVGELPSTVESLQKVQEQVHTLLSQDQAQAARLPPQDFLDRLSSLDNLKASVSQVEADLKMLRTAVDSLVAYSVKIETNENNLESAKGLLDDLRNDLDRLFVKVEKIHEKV
The settings on record: 200 μM, insitu, 231.

The target in test [4] is T2, cysteines in MDA-MB-231 and Ramos cells (Homo sapiens, UniProt Q9NWA0).
T2 sequence (Q9NWA0 1-146): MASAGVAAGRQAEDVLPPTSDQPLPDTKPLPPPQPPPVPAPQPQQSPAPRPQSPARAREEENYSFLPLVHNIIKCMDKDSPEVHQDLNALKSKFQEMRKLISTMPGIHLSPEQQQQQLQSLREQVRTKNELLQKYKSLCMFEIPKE
The following applies: 200 μM, insitu.

Test [5] addresses cysteines in MDA-MB-231 and Ramos cells (Homo sapiens, UniProt O60825). The settings on record: 200 μM, insitu.
Test [6] concerns the target T3, cysteines in MDA-MB-231 and Ramos cells (Homo sapiens, UniProt Q86W42).
T3 sequence (Q86W42 1-341): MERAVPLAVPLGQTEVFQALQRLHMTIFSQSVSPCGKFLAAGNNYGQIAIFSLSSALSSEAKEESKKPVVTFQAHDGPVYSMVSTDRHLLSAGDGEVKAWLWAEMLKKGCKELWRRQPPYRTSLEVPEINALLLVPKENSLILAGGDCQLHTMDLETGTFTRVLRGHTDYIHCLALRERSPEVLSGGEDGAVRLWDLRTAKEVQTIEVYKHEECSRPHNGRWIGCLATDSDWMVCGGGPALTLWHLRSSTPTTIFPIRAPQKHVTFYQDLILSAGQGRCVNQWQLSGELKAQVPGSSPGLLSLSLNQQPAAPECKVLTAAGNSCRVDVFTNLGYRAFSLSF
The settings on record: 200 μM, insitu, 231.

Test [7] has as its target T4, cysteines in MDA-MB-231 and Ramos cells (Homo sapiens, UniProt A0AVT1).
T4 sequence (A0AVT1 1-1052): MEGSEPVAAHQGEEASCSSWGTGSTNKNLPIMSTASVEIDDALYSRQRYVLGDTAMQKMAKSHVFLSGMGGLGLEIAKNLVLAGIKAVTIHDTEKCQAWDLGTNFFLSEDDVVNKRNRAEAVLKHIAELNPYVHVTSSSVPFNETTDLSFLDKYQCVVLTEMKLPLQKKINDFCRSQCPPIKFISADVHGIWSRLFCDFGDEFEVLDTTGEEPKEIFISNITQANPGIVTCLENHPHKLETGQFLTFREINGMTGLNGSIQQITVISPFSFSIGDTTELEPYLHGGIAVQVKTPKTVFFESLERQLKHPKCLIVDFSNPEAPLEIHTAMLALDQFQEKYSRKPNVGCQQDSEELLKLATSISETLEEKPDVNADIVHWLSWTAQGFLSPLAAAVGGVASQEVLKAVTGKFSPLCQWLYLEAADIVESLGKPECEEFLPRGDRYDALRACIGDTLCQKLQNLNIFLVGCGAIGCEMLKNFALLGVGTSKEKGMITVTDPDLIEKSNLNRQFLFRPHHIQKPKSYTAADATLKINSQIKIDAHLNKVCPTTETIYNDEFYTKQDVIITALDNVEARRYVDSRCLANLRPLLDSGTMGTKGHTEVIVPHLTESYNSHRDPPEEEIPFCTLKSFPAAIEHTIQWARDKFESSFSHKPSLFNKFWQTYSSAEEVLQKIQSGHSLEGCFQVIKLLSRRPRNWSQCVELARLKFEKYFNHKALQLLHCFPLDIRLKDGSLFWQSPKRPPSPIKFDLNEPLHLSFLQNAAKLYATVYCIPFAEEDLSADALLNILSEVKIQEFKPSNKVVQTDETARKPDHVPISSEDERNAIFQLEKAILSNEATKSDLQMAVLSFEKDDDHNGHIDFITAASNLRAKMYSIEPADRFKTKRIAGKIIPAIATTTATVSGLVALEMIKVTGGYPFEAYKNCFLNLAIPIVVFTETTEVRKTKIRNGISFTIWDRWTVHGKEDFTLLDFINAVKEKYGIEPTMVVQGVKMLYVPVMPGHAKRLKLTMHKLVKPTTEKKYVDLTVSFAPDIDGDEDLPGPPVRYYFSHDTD
The settings on record: 200 μM, insitu.

Test [8] deals with T5, cysteines in MDA-MB-231 and Ramos cells (Homo sapiens, UniProt Q9NY27).
T5 sequence (Q9NY27 1-417): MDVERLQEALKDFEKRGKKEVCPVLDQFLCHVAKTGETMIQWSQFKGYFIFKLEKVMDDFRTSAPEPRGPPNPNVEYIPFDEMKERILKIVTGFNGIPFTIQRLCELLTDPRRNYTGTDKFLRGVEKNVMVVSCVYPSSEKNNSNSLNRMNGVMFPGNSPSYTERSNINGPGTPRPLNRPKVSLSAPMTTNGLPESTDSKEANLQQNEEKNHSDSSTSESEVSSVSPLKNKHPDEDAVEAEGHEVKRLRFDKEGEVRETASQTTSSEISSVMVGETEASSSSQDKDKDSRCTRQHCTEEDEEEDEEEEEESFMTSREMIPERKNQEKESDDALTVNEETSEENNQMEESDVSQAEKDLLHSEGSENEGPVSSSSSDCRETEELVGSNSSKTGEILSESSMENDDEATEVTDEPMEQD
The following applies: 200 μM, insitu.

Sequence of cysteines in MDA-MB-231 and Ramos cells (Homo sapiens, UniProt Q96NY7) (Q96NY7 whole entry): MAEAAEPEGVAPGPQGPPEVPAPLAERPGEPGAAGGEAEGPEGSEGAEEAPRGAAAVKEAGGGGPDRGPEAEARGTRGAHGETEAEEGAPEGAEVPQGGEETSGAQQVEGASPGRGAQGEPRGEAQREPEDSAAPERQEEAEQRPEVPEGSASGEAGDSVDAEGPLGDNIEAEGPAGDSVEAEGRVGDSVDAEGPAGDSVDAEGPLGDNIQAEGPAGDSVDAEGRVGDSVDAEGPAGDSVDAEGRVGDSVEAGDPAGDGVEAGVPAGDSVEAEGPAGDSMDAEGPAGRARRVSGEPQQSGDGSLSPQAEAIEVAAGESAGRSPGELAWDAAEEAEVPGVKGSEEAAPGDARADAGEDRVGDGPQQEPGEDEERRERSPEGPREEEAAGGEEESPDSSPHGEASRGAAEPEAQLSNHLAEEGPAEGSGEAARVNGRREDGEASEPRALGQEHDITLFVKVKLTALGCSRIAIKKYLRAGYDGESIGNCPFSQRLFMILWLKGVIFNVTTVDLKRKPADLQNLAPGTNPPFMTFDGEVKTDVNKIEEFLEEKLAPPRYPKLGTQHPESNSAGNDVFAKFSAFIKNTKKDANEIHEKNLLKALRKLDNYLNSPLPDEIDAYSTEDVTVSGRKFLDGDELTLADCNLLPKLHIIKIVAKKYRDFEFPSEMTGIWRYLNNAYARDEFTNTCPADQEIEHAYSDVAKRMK
Sequence of cysteines in MDA-MB-231 and Ramos cells (Homo sapiens, UniProt O60825) (O60825 whole entry): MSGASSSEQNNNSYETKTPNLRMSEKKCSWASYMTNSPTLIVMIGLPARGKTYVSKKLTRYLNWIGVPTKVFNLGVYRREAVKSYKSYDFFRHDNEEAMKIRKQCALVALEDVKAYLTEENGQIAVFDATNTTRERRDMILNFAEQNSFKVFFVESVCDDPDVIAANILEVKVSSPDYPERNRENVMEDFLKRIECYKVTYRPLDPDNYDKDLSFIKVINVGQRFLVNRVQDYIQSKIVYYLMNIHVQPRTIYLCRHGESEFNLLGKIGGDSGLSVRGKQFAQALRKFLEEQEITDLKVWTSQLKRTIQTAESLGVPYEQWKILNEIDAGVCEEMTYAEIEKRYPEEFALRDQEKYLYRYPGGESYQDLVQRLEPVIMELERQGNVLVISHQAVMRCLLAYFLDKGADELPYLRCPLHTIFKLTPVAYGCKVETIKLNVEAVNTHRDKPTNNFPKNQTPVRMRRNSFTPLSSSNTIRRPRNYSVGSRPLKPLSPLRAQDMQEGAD
Sequence of cysteines in MDA-MB-231 and Ramos cells (Homo sapiens, UniProt O14933) (O14933 whole entry): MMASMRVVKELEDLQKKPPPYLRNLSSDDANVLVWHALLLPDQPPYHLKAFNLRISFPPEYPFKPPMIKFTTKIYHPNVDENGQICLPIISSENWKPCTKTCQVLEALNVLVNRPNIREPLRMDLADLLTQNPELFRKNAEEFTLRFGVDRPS

On to `O=C(CCl)NC12CC3CC(CC(C3)C1)C2` [compound 21], for which, in test [1], the “isoTOP-ABPP ratio Q96NY7_C487” value came out at 1.2. In addition, the “isoTOP-ABPP ratio, cysteine O14933_C98” value in test [2] (231) is 0.7. Moreover, in test [3], the “isoTOP-ABPP ratio, cysteine Q07065_C100” value turned out to be 2.2. Besides, in test [4] (231), the “isoTOP-ABPP ratio, cysteine Q9NWA0_C139” value is 1.5. Further, the “isoTOP-ABPP ratio O60825_C158” value in test [5] (231) was determined as 1.4.

For `CC(C)CCOCCNC(=O)CCl` [compound 27], the “isoTOP-ABPP ratio Q86W42_C35” value in test [6] is 1.3. For the same molecule, the “isoTOP-ABPP ratio Q9NWA0_C139” value in test [4] (231) is reported as 1.3. Further, the “isoTOP-ABPP ratio A0AVT1_C347” value in test [7] (231) was 0.8.

In the case of `COc1ccccc1OCCNC(=O)CCl` [compound 28], the “isoTOP-ABPP ratio Q86W42_C35” value in test [6] worked out at 1.3.

On to `O=C(CCl)N1CCN(CC(=O)N2CCOCC2)CC1` [compound 29], for which, in test [2] (ramos), the “isoTOP-ABPP ratio O14933_C98” value amounted to 2.4. Further, in test [8] (ramos), the “isoTOP-ABPP ratio Q9NY27_C22” value came to 1.7. Besides, in test [4] (ramos), the “isoTOP-ABPP ratio Q9NWA0_C139” value came to 0.7. Also, in test [5] (ramos), the “isoTOP-ABPP ratio O60825_C158” value is 0.9.

Take `C=CC(=O)N(Cc1cccnc1)c1cc(C(F)(F)F)cc(C(F)(F)F)c1` [compound 31]: in test [1], the “isoTOP-ABPP ratio Q96NY7_C487” value worked out at 0.5. In test [2] (ramos), the “isoTOP-ABPP ratio O14933_C98” value worked out at 1.9. The “isoTOP-ABPP ratio Q86W42_C35” value in test [6] is 0.5. The “isoTOP-ABPP ratio A0AVT1_C347” value in test [7] (ramos) turned out to be 1.9. The “isoTOP-ABPP ratio O60825_C158” value in test [5] (ramos) is on record as 1,3.

Regarding `C=CC(=O)Nc1cc(F)c(N2CCN(C(=O)OC(C)(C)C)CC2)c(F)c1` [compound 38], the “isoTOP-ABPP ratio O14933_C98” value in test [2] (231) came to 1.6. Further, the “isoTOP-ABPP ratio Q9NY27_C22” value in test [8] (231) is recorded as 1.0. Also, the “isoTOP-ABPP ratio Q86W42_C35” value in test [6] turned out to be 0.8.

On to `Cc1ccc(C=C(C#N)C(=O)NCCN2CCOCC2)cc1` [compound 41], for which, in test [1], the “isoTOP-ABPP ratio Q96NY7_C487” value turned out to be 0.4. Also, in test [2] (231), the “isoTOP-ABPP ratio O14933_C98” value turned out to be 0.5. Besides, the “isoTOP-ABPP ratio Q9NY27_C22” value in test [8] (231) stood at 0.8. Also, in test [6], the “isoTOP-ABPP ratio Q86W42_C35” value is 1.1. Also, the “isoTOP-ABPP ratio Q07065_C100” value in test [3] is 1.0. The “isoTOP-ABPP ratio Q9NWA0_C139” value in test [4] (231) is given as 0.8. In test [7] (231), the “isoTOP-ABPP ratio A0AVT1_C347” value is on record as 0.6. Moreover, the “isoTOP-ABPP ratio O60825_C158” value in test [5] (231) is 0.7.

In the case of `CC1CCc2ccccc2N1C(=O)CCl` (centres unmarked) [compound 45], the “isoTOP-ABPP ratio Q96NY7_C487” value in test [1] turned out to be 1.8. Moreover, the “isoTOP-ABPP ratio O14933_C98” value in test [2] (231) was 20.0. For the same molecule, the “isoTOP-ABPP ratio Q9NY27_C22” value in test [8] (231) is reported as 20.0. Also, the “isoTOP-ABPP ratio Q86W42_C35” value in test [6] is given as 20.0. For the same molecule, the “isoTOP-ABPP ratio Q07065_C100” value in test [3] was 20.0. Besides, in test [5] (231), the “isoTOP-ABPP ratio O60825_C158” value is 1.3.

As to `O=C(CCl)Nc1cccc2ncccc12` [compound 51], the “isoTOP-ABPP ratio Q9NY27_C22” value in test [8] (231) is recorded as 2.2. Further, the “isoTOP-ABPP ratio Q86W42_C35” value in test [6] amounted to 1.4. Further, in test [5] (231), the “isoTOP-ABPP ratio O60825_C158” value worked out at 0.9.

The values are drawn from US10670605B2, “Cysteine reactive probes and uses thereof” (The Scripps Research Institute, priority 2015, dated 2020).
